Laboratory results from PubChem BioAssay AID2060486 (Molecular Pharmacology Branch, DTP, NCI, 2025).
pIC50: −log10 of the molar value.

Tested on: IGROV1 complex spheroids (HUVEC, MSC), viability % test/control
Test: Anticancer human tumor IGROV1 cell line growth inhibition [GQUAD];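 also: spheroids exposed to compounds for 7 days before readout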
Details: for pIC50: curve of first compound; for viability, T/C: stronger effect = lower value; active = viability on the fitted dose curve at most 10% of control; inactive = the rest
Text: DNA G-quadruplex Stabilizer Agents in Combinations in Complex Spheroids
A high-throughput screen of multi-cell type tumor spheroids was designed to identify active combinations of DNA G-quadruplex stabilizer agents and targeted small molecules. Complex spheroids include a stromal component modeled by human endothelial cells (HUVEC) and fibroblasts modeled by human mesenchymal stem cells (MSCs). The concentration ranges selected for each drug and investigational agent were based upon clinically achievable concentrations if the clinical Cmax of the agent was known.
Compounds. The drugs and investigational agents: pidnarulex (CX-5461; NSC782164), APTO-253 (NSC789042), BRACO-19 (NSC847499), peposertib (NSC802822), ceralasertib (NSC780249), elimusertib (NSC800525), camonsertib (NSC841442), AZD-1390 (NSC803789), olaparib (NSC753686), talazoparib (NSC767125), ART-558 (NSC835418), sotorasib (NSC818433), MRTX-1133 (NSC836407), SN-38 (NSC673596), topotecan (NSC609699), etoposide (NSC141540), doxorubicin (NSC123127), gemcitabine (NSC613327), 5-fluorouracil (NSC19893), paclitaxel (NSC125973), vemurafenib (NSC761431), panobinostat (NSC761190), R-306465 (JNJ-16241199; NSC773264), adavosertib (NSC754352), TP-3654 (NSC805149), carboplatin (NSC241240), KSQ-4279 (NSC840948), and staurosporine (NSC755774) were obtained from the National Cancer Institute (NCI) Developmental Therapeutics Program Chemical Repository (34). The FDA-approved anticancer drug set is available from the NCI Developmental Therapeutics Program. […] The stock solutions were prepared in dimethyl sulfoxide (DMSO, Sigma-Aldrich, St. Louis, MO, cat. D2650) at 800-fold the tested concentration and stored at -70 degrees C prior to their use. All drugs and investigational agents were tested over a range starting from a high concentration at or near the clinical Cmax and decreasing in half-log increments. If the clinical Cmax for an agent had not been determined, the highest concentration tested was 10 microM.
2.3 Cell Culture. All cells were maintained in an incubator at 37 degrees C and 5% CO2 with 95% humidity. The PDC lines were cultured according to standard operating procedures established by the NCI PDMR. All PDCs were thawed and cultured in Matrigel-coated flasks prepared with a working solution of 1X Ham's F-12 nutrient mix, without supplementation (Invitrogen, cat. 11765054), 100 U/mL penicillin-streptomycin (Invitrogen, cat. 15140122), and 2.5% Matrigel (Corning Inc., cat. 354248) for the first three passages. The 857933-349-R-J2-PDC line was cultured in 6C/Colon 1B media, which includes advanced DMEM/F-12 (Thermo Fisher Scientific, cat. 12634028), 10 mM HEPES (Thermo Fisher Scientific, cat. 15630080), 1X GlutaMAX supplement (Thermo Fisher Scientific, cat. 35050061), 0.1 mg/mL primocin (InvivoGen, cat. ant-pm-2), 10% defined fetal bovine serum, heat inactivated (HyClone Laboratories Inc., cat. SH30070.03HI), 50% L-WRN conditioned media (ATCC, cat. CRL-3276), 1.25 mM N-Acetyl-L-cysteine (Sigma-Aldrich, cat. A9165), 10 mM nicotinamide (Sigma-Aldrich, cat. N0636), 1X B-27 supplement (Thermo Fisher Scientific, cat. 17504044), 1X N-2 supplement (Thermo Fisher Scientific, cat. 17502048), 10 microM Y-27632 dihydrochloride (Tocris Bioscience, cat. 1254), and 50 ng/mL human EGF recombinant protein (Thermo Fisher Scientific, cat. PHG0311). The 485176-168-R4-J1-PDC line was cultured in Panc media, which includes all 6C/Colon 1B media components plus 100 ng/mL human FGF-10 (Thermo Fisher Scientific, cat. 100-26), 500 nM SB-431542 (Selleckchem, cat. S1067), and gastrin (Tocris, cat. 3006).
[…]

[1] = second compound 0.0316 µM, first compound 0.0316 µM
[2] = second compound 0.0316 µM, first compound 0.316 µM
[3] = second compound 0.1 µM, first compound 0.0316 µM
[4] = second compound 0.1 µM, first compound 0.316 µM
[5] = second compound 0.316 µM, first compound 0.0316 µM
[6] = second compound 0.316 µM, first compound 0.316 µM
[7] = second compound 1 µM, first compound 0.0316 µM
[8] = second compound 1 µM, first compound 0.316 µM
[9] = second compound 3.16 µM, first compound 0.0316 µM
[10] = second compound 3.16 µM, first compound 0.316 µM
[11] = second compound 10 µM, first compound 0.0316 µM
[12] = second compound 10 µM, first compound 0.316 µM

CCCS(=O)(=O)Nc1ccc(F)c(C(=O)c2c[nH]c3ncc(-c4ccc(Cl)cc4)cc23)c1F + CN(C)c1ccc(Nc2c3ccc(NC(=O)CCN4CCCC4)cc3nc3cc(NC(=O)CCN4CCCC4)ccc23)cc1
inactive: viability, T/C [1] 103% | viability, T/C (second compound 0.0316 µM, first compound 0.1 µM) 84.7% | viability, T/C [2] 112% | viability, T/C (second compound 0.0316 µM, first compound 1 µM) 79.3% | viability, T/C (second compound 0.0316 µM, first compound 3.16 µM) 86.7% | viability, T/C (second compound 0.0316 µM, first compound 10 µM) 17.7% | viability, T/C [3] 103% | viability, T/C (second compound 0.1 µM, first compound 0.1 µM) 73.7% | viability, T/C [4] 90.4% | viability, T/C (second compound 0.1 µM, first compound 1 µM) 72% | viability, T/C (second compound 0.1 µM, first compound 3.16 µM) 83.5% | viability, T/C (second compound 0.1 µM, first compound 10 µM) 16.2% | viability, T/C [5] 86.2% | viability, T/C (second compound 0.316 µM, first compound 0.1 µM) 99.7% | viability, T/C [6] 98% | viability, T/C (second compound 0.316 µM, first compound 1 µM) 80.5% | viability, T/C (second compound 0.316 µM, first compound 3.16 µM) 82.3% | viability, T/C (second compound 0.316 µM, first compound 10 µM) 15.1% | viability, T/C [7] 57.9% | viability, T/C (second compound 1 µM, first compound 0.1 µM) 97.9% | viability, T/C [8] 88% | viability, T/C (second compound 1 µM, first compound 1 µM) 89.3% | viability, T/C (second compound 1 µM, first compound 3.16 µM) 77.7% | viability, T/C (second compound 1 µM, first compound 10 µM) 13.2% | viability, T/C [9] 78.1% | viability, T/C (second compound 3.16 µM, first compound 0.1 µM) 88.7% | viability, T/C [10] 82.4% | viability, T/C (second compound 3.16 µM, first compound 1 µM) 96.2% | viability, T/C (second compound 3.16 µM, first compound 3.16 µM) 67.4% | viability, T/C [11] 53.1% | viability, T/C (second compound 10 µM, first compound 0.1 µM) 59.3% | viability, T/C [12] 60.7% | viability, T/C (second compound 10 µM, first compound 1 µM) 67.9% | viability, T/C (second compound 10 µM, first compound 3.16 µM) 29.2%
active: viability, T/C (second compound 3.16 µM, first compound 10 µM) 9.77% | viability, T/C (second compound 10 µM, first compound 10 µM) 3.73%
5.35: pIC50 (second compound 3.16 µM)
5.27: pIC50 (second compound 0.316 µM)
5.25: pIC50 (second compound 0.0316 µM) | pIC50 (second compound 0.1 µM)
5.28: pIC50 (second compound 1 µM)
5.84: pIC50 (second compound 10 µM)

CC[C@@]1(O)C(=O)OCc2c1cc1n(c2=O)Cc2cc3c(CN(C)C)c(O)ccc3nc2-1 + CN(C)c1ccc(Nc2c3ccc(NC(=O)CCN4CCCC4)cc3nc3cc(NC(=O)CCN4CCCC4)ccc23)cc1
7.53: pIC50 (second compound 3.16 µM)
7.61: pIC50 (second compound 0.1 µM)
7.66: pIC50 (second compound 0.0316 µM)
> 9.00: pIC50 (second compound 10 µM)
7.64: pIC50 (second compound 1 µM)
inactive: viability, T/C (second compound 0.0316 µM, first compound 0.000999 µM) 98.2% | viability, T/C (second compound 0.0316 µM, first compound 0.00316 µM) 95.7% | viability, T/C (second compound 0.0316 µM, first compound 0.00999 µM) 93.1% | viability, T/C [1] 30.5% | viability, T/C (second compound 0.0316 µM, first compound 0.0999 µM) 12.2% | viability, T/C [2] 10.9% | viability, T/C (second compound 0.1 µM, first compound 0.000999 µM) 98.1% | viability, T/C (second compound 0.1 µM, first compound 0.00316 µM) 87.8% | viability, T/C (second compound 0.1 µM, first compound 0.00999 µM) 86% | viability, T/C [3] 39.7% | viability, T/C (second compound 0.1 µM, first compound 0.0999 µM) 13.5% | viability, T/C [4] 9.48% | viability, T/C (second compound 0.316 µM, first compound 0.000999 µM) 94.5% | viability, T/C (second compound 0.316 µM, first compound 0.00316 µM) 87.5% | viability, T/C (second compound 0.316 µM, first compound 0.00999 µM) 91.8% | viability, T/C [5] 39.4% | viability, T/C (second compound 0.316 µM, first compound 0.0999 µM) 12.4% | viability, T/C [6] 12.2% | viability, T/C (second compound 1 µM, first compound 0.000999 µM) 87.5% | viability, T/C (second compound 1 µM, first compound 0.00316 µM) 81.7% | viability, T/C (second compound 1 µM, first compound 0.00999 µM) 75.9% | viability, T/C [7] 40.5% | viability, T/C (second compound 1 µM, first compound 0.0999 µM) 9.84% | viability, T/C (second compound 3.16 µM, first compound 0.000999 µM) 70.5% | viability, T/C (second compound 3.16 µM, first compound 0.00316 µM) 89.4% | viability, T/C (second compound 3.16 µM, first compound 0.00999 µM) 77.4% | viability, T/C [9] 48.1% | viability, T/C (second compound 3.16 µM, first compound 0.0999 µM) 13.5% | viability, T/C [10] 10.8% | viability, T/C (second compound 10 µM, first compound 0.000999 µM) 42.9% | viability, T/C (second compound 10 µM, first compound 0.00316 µM) 35% | viability, T/C (second compound 10 µM, first compound 0.00999 µM) 37% | viability, T/C [11] 19.1% | viability, T/C (second compound 10 µM, first compound 0.0999 µM) 9.45%
7.60: pIC50 (second compound 0.316 µM)
active: viability, T/C [8] 12.7% | viability, T/C [12] 6.49%
